# Assay results from US9409905B2, “Antibacterial compounds and methods for use” (PTC THERAPEUTICS, INC., priority 2011, dated 2016).
# How the values were obtained:
# [1] = system: Escherichia coli (E. coli) BAS849; test: Antibacterial activity, microbroth dilution MIC (Table 1); assay type: cell-based; conditions: microbroth dilution, super sensitive Gram-negative E. coli BAS849, read-out: MIC, BAS849
# Outline: (§1)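 Read-out: visual absence of growth. The lowest concentration meeting this gives the MIC, expressed in μg/mL, with microbroth dilution as the method.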
# [2] = system: Staphylococcus aureus (S. aureus) 29213; test: as above; assay type: cell-based; conditions: microbroth dilution, Gram-positive S. aureus 29213, read-out: MIC, 29213
# Outline: as §1
# [3] = system: Pseudomonas aeruginosa (P. aeruginosa) 27853; test: Antibacterial activity, MIC (Table 5); assay type: cell-based; conditions: P. aeruginosa 27853, read-out: MIC, 27853
# Outline: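 Microbroth dilution; MIC (μg/mL) = lowest concentration with no macroscopically visible growth.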
# [4] = system: Haemophilus influenzae (H. influenzae) 49247; test: Antibacterial activity, MIC (Table 6); assay type: cell-based
# Outline: (§2)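 Broth microdilution; MIC (μg/mL) = lowest concentration with no macroscopically visible growth.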
# E. coli ELZ4251 = test: Antibacterial activity, MIC, multi-drug resistant clinical isolate (Table 3); assay type: cell-based; conditions: Escherichia coli
# Outline: (§3)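 MIC (μg/mL) read as lowest concentration with no macroscopically visible growth, determined by microbroth dilution.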
# E. coli ELZ4000 = test: as above; assay type: cell-based; conditions: Escherichia coli, ELZ4000, read-out: MIC ELZ4000
# Outline: as §3
# [5] = system: Moraxella catarrhalis (M. catarrhalis) 25238; test: Antibacterial activity, MIC (Table 7); assay type: cell-based
# Description: The antibacterial activity from a microbroth dilution method may be presented as the minimum inhibitory concentration (MIC in μg/mL). The MIC value is the lowest concentration of drug which prevents macroscopically visible growth under test conditions.
# Antibacterial activity of test compounds against the Gram-negative bacteria Haemophilus influenzae (H. influenzae) 49247 is shown in Table 6, Moraxella catarrhalis (M. catarrhalis) 25238 is shown in Table 7 and Neisseria meningitidis (N. meningitidis) 13090 is shown in Table 8.
# E. coli LZ3111 = test: Antibacterial activity, MIC, quinolone resistant strain (Table 2); assay type: cell-based; conditions: Escherichia coli, LZ3111, read-out: MIC LZ3111
# Outline: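 Broth microdilution. Read-out: MIC in μg/mL, taken as lowest concentration with no macroscopically visible growth.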
# [6] = system: Klebsiella pneumoniae (K. pneumoniae) 35657; test: Antibacterial activity, MIC (Table 4); assay type: cell-based; conditions: K. pneumoniae 35657, read-out: MIC, 35657
# Outline: (§4)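 MIC in μg/mL by microbroth dilution, scored as the lowest level that suppresses visible growth.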
# [7] = system: Acinetobacter baumannii (A. baumannii) BAA747; test: Antibacterial activity, MIC (Table 4); assay type: cell-based; conditions: A. baumannii BAA747, read-out: MIC, BAA747
# Outline: as §4
# K. pneumoniae MXX1232 = test: Antibacterial activity, MIC, resistant strain (Table 4); assay type: cell-based; conditions: Klebsiella pneumoniae, MXX1232; resistant K. pneumoniae MMX1232, multi-drug resistant clinical isolate; read-out: MIC, MMX1232
# Outline: as §4
# A. baumannii MXX2240 = test: as above; assay type: cell-based; conditions: Acinetobacter baumannii, MXX2240; resistant A. baumannii MMX2240, multi-drug resistant clinical isolate; read-out: MIC, MMX2240
# Outline: as §4
# E. coli 25922 = test: Antibacterial activity, microbroth dilution MIC (Table 1); assay type: cell-based, Escherichia coli; conditions: Escherichia coli; microbroth dilution; control Gram-negative E. coli 25922 strain; read-out: MIC, 25922
# Outline: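 Using broth microdilution, MIC endpoints (μg/mL) mark where visible growth no longer appears; the panel spans sensitive and control Gram-negative strains plus a Gram-positive strain.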
# [8] = system: Neisseria meningitidis (N. meningitidis) 13090; test: Antibacterial activity, MIC (Table 8); assay type: cell-based
# Outline: as §2
Compound,MIC [1],MIC [2],MIC [3],MIC [4],MIC (E. coli ELZ4251),MIC (E. coli ELZ4000),MIC [5],MIC (E. coli LZ3111),MIC [6],MIC [7],MIC (K. pneumoniae MXX1232),MIC (A. baumannii MXX2240),MIC (E. coli 25922),MIC [8]
"CCc1c(-c2ccc3c(c2)cc(CN2CCOCC2)n3C)[nH]c(=O)c(C(=O)O)c1O [Cpd 168, 5-ethyl-4-hydroxy-6-(1-methyl-2-(morpholinomethyl)-1H-indol-5-yl)-2-oxo-1,2-dihydropyridine-3-carboxylic acid]",< 1 µg/mL,1 to 3.5 µg/mL,12.5 to 150 µg/mL,< 1 µg/mL,12.5 to 150 µg/mL,12.5 to 150 µg/mL,< 1 µg/mL,3.5 to 12.5 µg/mL,1 to 3.5 µg/mL,1 to 3.5 µg/mL,12.5 to 150 µg/mL,3.5 to 12.5 µg/mL,1 to 3.5 µg/mL,< 1 µg/mL
"CCc1c(-c2ccc3c(c2)cc(CNCC2CCC2)n3C)[nH]c(=O)c(C(=O)O)c1O.Cl [Cpd 235, 6-(2-((cyclobutylmethylamino)methyl)-1-methyl-1H-indol-5-yl)-5-ethyl-4-hydroxy-2-oxo-1,2-dihydropyridine-3-carboxylic acid hydrochloride]",< 1 µg/mL,3.5 to 12.5 µg/mL,12.5 to 150 µg/mL,< 1 µg/mL,3.5 to 12.5 µg/mL,12.5 to 150 µg/mL,< 1 µg/mL,3.5 to 12.5 µg/mL,1 to 3.5 µg/mL,< 1 µg/mL,12.5 to 150 µg/mL,3.5 to 12.5 µg/mL,< 1 µg/mL,< 1 µg/mL
"CCc1c(-c2ccc3c(cnn3C)c2)[nH]c(=O)c(C(=O)O)c1O [Cpd 42, 5-ethyl-4-hydroxy-6-(1-methyl-1H-indazol-5-yl)-2-oxo-1,2-dihydropyridine-3-carboxylic acid]",< 1 µg/mL,12.5 to 150 µg/mL,12.5 to 150 µg/mL,< 1 µg/mL,3.5 to 12.5 µg/mL,3.5 to 12.5 µg/mL,< 1 µg/mL,1 to 3.5 µg/mL,3.5 to 12.5 µg/mL,1 to 3.5 µg/mL,12.5 to 150 µg/mL,3.5 to 12.5 µg/mL,3.5 to 12.5 µg/mL,< 1 µg/mL
"C#CCNCc1cc2cc(-c3[nH]c(=O)c(C(=O)O)c(O)c3CC)ccc2n1C.Cl [Cpd 277, 5-ethyl-4-hydroxy-6-(1-methyl-2-((prop-2-ynylamino)methyl)-1H-indol-5-yl)-2-oxo-1,2-dihydropyridine-3-carboxylic acid hydrochloride]",< 1 µg/mL,1 to 3.5 µg/mL,12.5 to 150 µg/mL,< 1 µg/mL,3.5 to 12.5 µg/mL,12.5 to 150 µg/mL,< 1 µg/mL,1 to 3.5 µg/mL,1 to 3.5 µg/mL,1 to 3.5 µg/mL,12.5 to 150 µg/mL,12.5 to 150 µg/mL,< 1 µg/mL,< 1 µg/mL
"CCc1c(-c2ccc3c(c2)cc(CNC2CCCC2)n3C)[nH]c(=O)c(C(=O)O)c1O.Cl [Cpd 229, 6-(2-((cyclopentylamino)methyl)-1-methyl-1H-indol-5-yl)-5-ethyl-4-hydroxy-2-oxo-1,2-dihydropyridine-3-carboxylic acid hydrochloride]",< 1 µg/mL,3.5 to 12.5 µg/mL,3.5 to 12.5 µg/mL,< 1 µg/mL,3.5 to 12.5 µg/mL,12.5 to 150 µg/mL,< 1 µg/mL,3.5 to 12.5 µg/mL,< 1 µg/mL,< 1 µg/mL,12.5 to 150 µg/mL,1 to 3.5 µg/mL,< 1 µg/mL,< 1 µg/mL
"Cc1c(-c2ccc3c(c2)cc(CNCC2CC2)n3C)[nH]c(=O)c(C(=O)O)c1O [Cpd 315, 6-(2-((cyclopropylmethylamino)methyl)-1-methyl-1H-indol-5-yl)-4-hydroxy-5-methyl-2-oxo-1,2-dihydropyridine-3-carboxylic acid]",< 1 µg/mL,12.5 to 150 µg/mL,12.5 to 150 µg/mL,1 to 3.5 µg/mL,< 1 µg/mL,1 to 3.5 µg/mL,3.5 to 12.5 µg/mL,< 1 µg/mL,1 to 3.5 µg/mL,1 to 3.5 µg/mL,12.5 to 150 µg/mL,1 to 3.5 µg/mL,1 to 3.5 µg/mL,< 1 µg/mL
"CCc1c(-c2ccc3c(c2)cc(CN(CC)CC)n3C)[nH]c(=O)c(C(=O)O)c1O [Cpd 167, 6-(2-((diethylamino)methyl)-1-methyl-1H-indol-5-yl)-5-ethyl-4-hydroxy-2-oxo-1,2-dihydropyridine-3-carboxylic acid]",< 1 µg/mL,12.5 to 150 µg/mL,12.5 to 150 µg/mL,< 1 µg/mL,3.5 to 12.5 µg/mL,12.5 to 150 µg/mL,< 1 µg/mL,3.5 to 12.5 µg/mL,1 to 3.5 µg/mL,1 to 3.5 µg/mL,12.5 to 150 µg/mL,3.5 to 12.5 µg/mL,< 1 µg/mL,< 1 µg/mL
"CCc1c(-c2ccc3c(c2)cc(CNCC2CCCN2CC)n3C)[nH]c(=O)c(C(=O)O)c1O.Cl.Cl (stereo not drawn) [Cpd 230, 5-ethyl-6-(2-(((1-ethylpyrrolidin-2-yl)methylamino)methyl)-1-methyl-1H-indol-5-yl)-4-hydroxy-2-oxo-1,2-dihydropyridine-3-carboxylic acid dihydrochloride]",< 1 µg/mL,12.5 to 150 µg/mL,12.5 to 150 µg/mL,3.5 to 12.5 µg/mL,12.5 to 150 µg/mL,12.5 to 150 µg/mL,3.5 to 12.5 µg/mL,3.5 to 12.5 µg/mL,1 to 3.5 µg/mL,12.5 to 150 µg/mL,12.5 to 150 µg/mL,12.5 to 150 µg/mL,3.5 to 12.5 µg/mL,1 to 3.5 µg/mL
"CCc1c(-c2cnc3c(ccn3C)c2)[nH]c(=O)c(C(=O)O)c1O [Cpd 32, 5-ethyl-4-hydroxy-6-(1-methyl-1H-pyrrolo[2,3-b]pyridin-5-yl)-2-oxo-1,2-dihydropyridine-3-carboxylic acid]",< 1 µg/mL,3.5 to 12.5 µg/mL,12.5 to 150 µg/mL,1 to 3.5 µg/mL,< 1 µg/mL,1 to 3.5 µg/mL,1 to 3.5 µg/mL,1 to 3.5 µg/mL,12.5 to 150 µg/mL,12.5 to 150 µg/mL,12.5 to 150 µg/mL,< 1 µg/mL,12.5 to 150 µg/mL,< 1 µg/mL
"CCc1c(-c2ccc3c(c2)cc(CN2C[C@H]4CC[C@@H](N)[C@H]4C2)n3C)[nH]c(=O)c(C(=O)O)c1O [Cpd 276, 6-(2-(((3aR,4R,6aS)-4-aminohexahydrocyclopenta[c]pyrrol-2(1H)-yl)methyl)-1-methyl-1H-indol-5-yl)-5-ethyl-4-hydroxy-2-oxo-1,2-dihydropyridine-3-carboxylic acid]",< 1 µg/mL,3.5 to 12.5 µg/mL,12.5 to 150 µg/mL,1 to 3.5 µg/mL,12.5 to 150 µg/mL,12.5 to 150 µg/mL,1 to 3.5 µg/mL,3.5 to 12.5 µg/mL,1 to 3.5 µg/mL,12.5 to 150 µg/mL,12.5 to 150 µg/mL,12.5 to 150 µg/mL,1 to 3.5 µg/mL,< 1 µg/mL
"CCc1c(-c2ccc3c(c2)cc(CN2CCC(NC)CC2)n3C)[nH]c(=O)c(C(=O)O)c1O [Cpd 256, 5-ethyl-4-hydroxy-6-(1-methyl-2-((4-(methylamino)piperidin-1-yl)methyl)-1H-indol-5-yl)-2-oxo-1,2-dihydropyridine-3-carboxylic acid]",< 1 µg/mL,3.5 to 12.5 µg/mL,3.5 to 12.5 µg/mL,1 to 3.5 µg/mL,12.5 to 150 µg/mL,12.5 to 150 µg/mL,1 to 3.5 µg/mL,1 to 3.5 µg/mL,1 to 3.5 µg/mL,12.5 to 150 µg/mL,12.5 to 150 µg/mL,12.5 to 150 µg/mL,1 to 3.5 µg/mL,1 to 3.5 µg/mL
"CCc1c(-c2ccc3c(c2)cc(CNC2CCC2)n3C)[nH]c(=O)c(C(=O)O)c1O.Cl [Cpd 232, 6-(2-((cyclobutylamino)methyl)-1-methyl-1H-indol-5-yl)-5-ethyl-4-hydroxy-2-oxo-1,2-dihydropyridine-3-carboxylic acid hydrochloride]",< 1 µg/mL,3.5 to 12.5 µg/mL,3.5 to 12.5 µg/mL,< 1 µg/mL,3.5 to 12.5 µg/mL,3.5 to 12.5 µg/mL,< 1 µg/mL,1 to 3.5 µg/mL,1 to 3.5 µg/mL,< 1 µg/mL,12.5 to 150 µg/mL,1 to 3.5 µg/mL,< 1 µg/mL,< 1 µg/mL
